Measured values as given in paper PMC5218480 (PLoS ONE, 2017).

Test system: MV-4-11 cells
Assay: Gene expression microarray analysis (Affymetrix PrimeView) and GSEA
Format: cell-based, human
Set-up: RFU PODN (11730768_x_at) / Fold change /veh PODN (11730768_x_at) / RFU LINC00158 (11744669_a_at) / Fold change /veh LINC00158 (11744669_a_at) / RFU DUSP10 (11751237_a_at) / Fold change /veh DUSP10 (11751237_a_at) / RFU ID3 (11757404_x_at) / Fold change /veh ID3 (11757404_x_at) / RFU PLEKHG5 (11737974_s_at) / Fold change /veh PLEKHG5 (11737974_s_at) / RFU LRRC4B (11730491_at) / Fold change /veh LRRC4B (11730491_at) / RFU GIMAP4 (11747438_a_at) / Fold change /veh GIMAP4 (11747438_a_at) / RFU KRT8 (11758183_x_at) / Fold change /veh KRT8 (11758183_x_at) / RFU CNN1 (11734310_a_at) / Fold change /veh CNN1 (11734310_a_at) / RFU VPS37D (11726825_at) / Fold change /veh VPS37D (11726825_at) / RFU C10orf10 (11716522_x_at) / Fold change /veh C10orf10 (11716522_x_at) / RFU KIR2DL2 /// KIR2DL4 /// KIR2DL5A /// KIR2DL5B /// KIR2DS1 /// KIR2DS2 /// KIR2DS3 /// KIR2DS4 /// KIR3DL3 /// KIR3DL3 /// KIR3DS1 (11738374_at) / Fold change /veh KIR2DL2 /// KIR2DL4 /// KIR2DL5A /// KIR2DL5B /// KIR2DS1 /// KIR2DS2 /// KIR2DS3 /// KIR2DS4 /// KIR3DL3 /// KIR3DL3 /// KIR3DS1 (11738374_at) / RFU C1QL1 (11718748_at) / Fold change /veh C1QL1 (11718748_at) / RFU TMPRSS4 (11747572_a_at) / Fold change /veh TMPRSS4 (11747572_a_at) / RFU HAMP (11756126_x_at) / Fold change /veh HAMP (11756126_x_at) / RFU RNFT2 (11725882_a_at) / Fold change /veh RNFT2 (11725882_a_at) / RFU NR4A2 (11747474_a_at) / Fold change /veh NR4A2 (11747474_a_at) / RFU ABCC12 (11746883_a_at) / Fold change /veh ABCC12 (11746883_a_at) / RFU TMEM136 (11760407_x_at) / Fold change /veh TMEM136 (11760407_x_at) / RFU CLDN22 /// WWC2 (11732394_at) / Fold change /veh CLDN22 /// WWC2 (11732394_at) / RFU HLA-DPB1 (11760878_x_at) / Fold change /veh HLA-DPB1 (11760878_x_at) / RFU SPINT1 (11716480_a_at) / Fold change /veh SPINT1 (11716480_a_at) / RFU GAP43 (11754022_s_at) / Fold change /veh GAP43 (11754022_s_at) / RFU A4GNT (11735810_at) / Fold change /veh A4GNT (11735810_at) / RFU PRB3 (11715151_x_at) / Fold change /veh PRB3 (11715151_x_at) / RFU TUBB4B (11761932_at) / Fold change /veh TUBB4B (11761932_at) / RFU CAPN14 (11732068_a_at) / Fold change /veh CAPN14 (11732068_a_at) / RFU TMCC2 (11721928_a_at) / Fold change /veh TMCC2 (11721928_a_at) / RFU IRGQ (11745062_a_at) / Fold change /veh IRGQ (11745062_a_at) / RFU FAM174B (11720279_a_at) / Fold change /veh FAM174B (11720279_a_at) / RFU TMPRSS4 (11748680_a_at) / Fold change /veh TMPRSS4 (11748680_a_at) / RFU FAM212B (11763350_a_at) / Fold change /veh FAM212B (11763350_a_at) / RFU PLEKHG5 (11743358_a_at) / Fold change /veh PLEKHG5 (11743358_a_at) / RFU ZSCAN30 (11745921_a_at) / Fold change /veh ZSCAN30 (11745921_a_at) / RFU CMKLR1 (11741424_a_at) / Fold change /veh CMKLR1 (11741424_a_at) / RFU LOC101060620 /// MAPK8IP1 (11723275_at) / Fold change /veh LOC101060620 /// MAPK8IP1 (11723275_at) / RFU SPTSSB (11747773_x_at) / Fold change /veh SPTSSB (11747773_x_at) / RFU PRSS12 (11739890_at) / Fold change /veh PRSS12 (11739890_at) / RFU BIN1 (11741810_x_at) / Fold change /veh BIN1 (11741810_x_at) / RFU WNT11 (11732464_a_at) / Fold change /veh WNT11 (11732464_a_at) / RFU C10orf10 (11716521_a_at) / Fold change /veh C10orf10 (11716521_a_at) / RFU C5orf56 (11738089_at) / Fold change /veh C5orf56 (11738089_at) / RFU CYB561 (11721691_x_at) / Fold change /veh CYB561 (11721691_x_at) / RFU ANKRD19P (11752326_a_at) / Fold change /veh ANKRD19P (11752326_a_at) / RFU OR2T12 /// OR2T33 /// OR2T8 (11738714_s_at) / Fold change /veh OR2T12 /// OR2T33 /// OR2T8 (11738714_s_at) / RFU VCAN (11748164_a_at) / Fold change /veh VCAN (11748164_a_at) / RFU JSRP1 (11732532_at) / Fold change /veh JSRP1 (11732532_at) / RFU KRTAP10-11 (11738290_x_at) / Fold change /veh KRTAP10-11 (11738290_x_at) / RFU MYO3A (11730013_a_at) / Fold change /veh MYO3A (11730013_a_at) / RFU EBF3 (11725865_a_at) / Fold change /veh EBF3 (11725865_a_at) / RFU CAMK2N1 (11719241_x_at) / Fold change /veh CAMK2N1 (11719241_x_at) / RFU C5orf56 (11738088_a_at) / Fold change /veh C5orf56 (11738088_a_at) / RFU OLFML3 (11715873_a_at) / Fold change /veh OLFML3 (11715873_a_at) / RFU LOC100653217 /// NTM (11731650_a_at) / Fold change /veh LOC100653217 /// NTM (11731650_a_at) / RFU MAPK11 (11762145_a_at) / Fold change /veh MAPK11 (11762145_a_at) / RFU FIZ1 (11724087_x_at) / Fold change /veh FIZ1 (11724087_x_at) / RFU OASL (11726364_x_at) / Fold change /veh OASL (11726364_x_at) / RFU SOX15 (11748057_x_at) / Fold change /veh SOX15 (11748057_x_at) / RFU CD79A (11719716_a_at) / Fold change /veh CD79A (11719716_a_at) / RFU HIST1H1D (11736915_at) / Fold change /veh HIST1H1D (11736915_at) / RFU CASKIN2 (11723855_a_at) / Fold change /veh CASKIN2 (11723855_a_at) / RFU LOC730098 (11760151_x_at) / Fold change /veh LOC730098 (11760151_x_at) / RFU OR4N2 (11742367_at) / Fold change /veh OR4N2 (11742367_at) / RFU PRRT2 (11749266_a_at) / Fold change /veh PRRT2 (11749266_a_at) / RFU SNX32 (11753110_a_at) / Fold change /veh SNX32 (11753110_a_at) / RFU CDHR5 (11726645_a_at) / Fold change /veh CDHR5 (11726645_a_at) / RFU RCAN1 (11760418_a_at) / Fold change /veh RCAN1 (11760418_a_at) / RFU FAM167A (11723789_a_at) / Fold change /veh FAM167A (11723789_a_at) / RFU FAM26E (11764081_at) / Fold change /veh FAM26E (11764081_at) / RFU ISYNA1 (11749810_s_at) / Fold change /veh ISYNA1 (11749810_s_at) / RFU ACY1 (11761880_at) / Fold change /veh ACY1 (11761880_at) / RFU 11764098_at / Fold change /veh 11764098_at / RFU SAMD14 (11745864_x_at) / Fold change /veh SAMD14 (11745864_x_at) / RFU NPB (11741838_a_at) / Fold change /veh NPB (11741838_a_at) / RFU TMPRSS6 (11731388_a_at) / Fold change /veh TMPRSS6 (11731388_a_at) / RFU KRTAP10-2 (11738614_at) / Fold change /veh KRTAP10-2 (11738614_at) / RFU ARHGAP8 /// PRR5-ARHGAP8 (11727945_x_at) / Fold change /veh ARHGAP8 /// PRR5-ARHGAP8 (11727945_x_at) / RFU KRTAP5-7 /// NADSYN1 (11734609_at) / Fold change /veh KRTAP5-7 /// NADSYN1 (11734609_at) / RFU RASL12 (11751679_a_at) / Fold change /veh RASL12 (11751679_a_at) / RFU CDKN2B (11736163_a_at) / Fold change /veh CDKN2B (11736163_a_at) / RFU PRF1 (11729649_at) / Fold change /veh PRF1 (11729649_at) / RFU, ZNF638 /// ZNF638-IT1 / Fold change vs veh, ZNF638 /// ZNF638-IT1 / RFU, PANK3 / Fold change vs veh, PANK3 / RFU, SH3YL1 / Fold change vs veh, SH3YL1 / RFU, ZEB2 / Fold change vs veh, ZEB2 / RFU, NRIP1 / Fold change vs veh, NRIP1 / RFU, PTTG1IP / Fold change vs veh, PTTG1IP / RFU, CAPN2 / Fold change vs veh, CAPN2 / RFU, MED14 / Fold change vs veh, MED14 / RFU, SNORA58 / Fold change vs veh, SNORA58 / RFU, C1orf63 / Fold change vs veh, C1orf63 / RFU, LRRFIP1 / Fold change vs veh, LRRFIP1 / RFU, NDUFAF7 / Fold change vs veh, NDUFAF7 / RFU, SLC12A2 / Fold change vs veh, SLC12A2 / RFU, IBTK / Fold change vs veh, IBTK / RFU, ESF1 / Fold change vs veh, ESF1 / Fold change vs veh, TMEM50B / RFU, TAOK1 / Fold change vs veh, TAOK1 / RFU, ACBD3 / Fold change vs veh, ACBD3 / RFU, TMA16 / Fold change vs veh, TMA16 / RFU, RWDD3 / Fold change vs veh, RWDD3 / RFU, BCAT1 / Fold change vs veh, BCAT1 / RFU, EDEM3 / Fold change vs veh, EDEM3 / RFU, TMEM33 / Fold change vs veh, TMEM33 / RFU, WDR75 / Fold change vs veh, WDR75 / RFU, AHCTF1 / Fold change vs veh, AHCTF1 / RFU, TFRC / Fold change vs veh, TFRC / RFU, ZDHHC17 / Fold change vs veh, ZDHHC17 / RFU, NOM1 / Fold change vs veh, NOM1 / RFU, ARL8B / Fold change vs veh, ARL8B / RFU, ZBTB11 / Fold change vs veh, ZBTB11 / RFU, TAMM41 / Fold change vs veh, TAMM41 / RFU, KIAA1704 /// LOC100996395 / Fold change vs veh, KIAA1704 /// LOC100996395 / RFU, ING1 / Fold change vs veh, ING1 / RFU, TRMT61B / Fold change vs veh, TRMT61B / RFU, FUBP3 / Fold change vs veh, FUBP3 / RFU, TP53 / Fold change vs veh, TP53 / RFU, TNKS2 / Fold change vs veh, TNKS2 / RFU, ZFP14 / Fold change vs veh, ZFP14 / RFU, ACTR2 / Fold change vs veh, ACTR2 / RFU, PPP3R1 / Fold change vs veh, PPP3R1 / RFU, PIK3R1 / Fold change vs veh, PIK3R1 / RFU, HNRNPA1 / Fold change vs veh, HNRNPA1 / RFU, RNF170 / Fold change vs veh, RNF170 / RFU, ZNF28 / Fold change vs veh, ZNF28 / RFU, RNGTT / Fold change vs veh, RNGTT / RFU, OGT / Fold change vs veh, OGT / RFU, BRD1 / Fold change vs veh, BRD1 / RFU, MARS / Fold change vs veh, MARS / RFU, ZNF655 / Fold change vs veh, ZNF655 / RFU, FAHD1 / Fold change vs veh, FAHD1 / RFU, BDP1 / Fold change vs veh, BDP1 / RFU, LRRCC1 / Fold change vs veh, LRRCC1 / RFU, ARID1A / Fold change vs veh, ARID1A / RFU, ZNF146 / Fold change vs veh, ZNF146 / RFU, ZNF330 / Fold change vs veh, ZNF330 / RFU, GPN3 / Fold change vs veh, GPN3 / RFU, C9orf123 / Fold change vs veh, C9orf123 / RFU, N4BP2L2 / Fold change vs veh, N4BP2L2 / RFU, ARFIP1 / Fold change vs veh, ARFIP1 / RFU, FAM179B / Fold change vs veh, FAM179B / RFU, BCL10 / Fold change vs veh, BCL10 / RFU, UHRF1BP1L / Fold change vs veh, UHRF1BP1L / RFU, BET1 / Fold change vs veh, BET1 / RFU, CNOT2 / Fold change vs veh, CNOT2 / RFU, ZNF268 / Fold change vs veh, ZNF268 / Fold change vs veh, ZNF507 / RFU, DGCR2 / Fold change vs veh, DGCR2 / RFU, WDSUB1 / Fold change vs veh, WDSUB1 / Fold change vs veh, HSP90B1 /// MIR3652 / RFU, ADSS / Fold change vs veh, ADSS / RFU, GK / Fold change vs veh, GK / RFU, ZNF148 / Fold change vs veh, ZNF148 / RFU, TAF9 / Fold change vs veh, TAF9 / RFU, SLC1A5 / Fold change vs veh, SLC1A5 / RFU, SLMO2 / Fold change vs veh, SLMO2 / RFU, ABCC4 / Fold change vs veh, ABCC4 / RFU, LOC101060439 /// RAP1B / Fold change vs veh, LOC101060439 /// RAP1B / RFU, RFX7 / Fold change vs veh, RFX7 / RFU, GTPBP10 / Fold change vs veh, GTPBP10 / RFU, CNEP1R1 / Fold change vs veh, CNEP1R1 / RFU, BIVM-ERCC5 /// ERCC5 / Fold change vs veh, BIVM-ERCC5 /// ERCC5 / RFU, ILF3 / Fold change vs veh, ILF3 / RFU 11762660_at / Fold change /veh 11762660_at / RFU VCAN (11757783_s_at) / Fold change /veh VCAN (11757783_s_at) / RFU DDX43 (11728927_at) / Fold change /veh DDX43 (11728927_at) / RFU KRT8 (11758188_x_at) / Fold change /veh KRT8 (11758188_x_at) / RFU NKD1 (11759106_at) / Fold change /veh NKD1 (11759106_at) / RFU SRD5A1 (11742802_a_at) / Fold change /veh SRD5A1 (11742802_a_at) / RFU TPSAB1 /// TPSB2 (11721975_s_at) / Fold change /veh TPSAB1 /// TPSB2 (11721975_s_at) / RFU GSTM3 (11746129_a_at) / Fold change /veh GSTM3 (11746129_a_at) / RFU IL23R (11737362_x_at) / Fold change /veh IL23R (11737362_x_at) / RFU TMEM51 (11727254_a_at) / Fold change /veh TMEM51 (11727254_a_at) / RFU PIWIL2 (11732686_x_at) / Fold change /veh PIWIL2 (11732686_x_at) / RFU ORM1 (11744905_x_at) / Fold change /veh ORM1 (11744905_x_at) / RFU CCDC152 (11743942_at) / Fold change /veh CCDC152 (11743942_at) / RFU ECM1 (11717891_a_at) / Fold change /veh ECM1 (11717891_a_at) / RFU IL23R (11748794_a_at) / Fold change /veh IL23R (11748794_a_at) / RFU TNFAIP8L3 (11732012_x_at) / Fold change /veh TNFAIP8L3 (11732012_x_at) / RFU MBOAT4 (11741988_at) / Fold change /veh MBOAT4 (11741988_at) / RFU 11764193_at / Fold change /veh 11764193_at / RFU TMEM53 (11763286_at) / Fold change /veh TMEM53 (11763286_at) / RFU MAGEB2 (11727129_at) / Fold change /veh MAGEB2 (11727129_at) / RFU TMEM200A (11744735_a_at) / Fold change /veh TMEM200A (11744735_a_at) / RFU CCDC152 (11751479_a_at) / Fold change /veh CCDC152 (11751479_a_at) / RFU FAM211A (11726209_a_at) / Fold change /veh FAM211A (11726209_a_at) / RFU RGS16 (11746705_a_at) / Fold change /veh RGS16 (11746705_a_at) / RFU VCAN (11755009_s_at) / Fold change /veh VCAN (11755009_s_at) / RFU RHOB (11743442_s_at) / Fold change /veh RHOB (11743442_s_at) / RFU RGS16 (11720943_a_at) / Fold change /veh RGS16 (11720943_a_at) / RFU RGS16 (11720944_at) / Fold change /veh RGS16 (11720944_at) / RFU, VPS4B / Fold change vs veh, VPS4B / RFU, CREB1 / Fold change vs veh, CREB1 / RFU, DNAJC13 / Fold change vs veh, DNAJC13 / RFU, GNAQ / Fold change vs veh, GNAQ / RFU, CDK5R1 / Fold change vs veh, CDK5R1 / RFU, ZRANB3 / Fold change vs veh, ZRANB3 / RFU, CUL4A / Fold change vs veh, CUL4A / RFU, CCNY / Fold change vs veh, CCNY / RFU, UFL1 / Fold change vs veh, UFL1 / RFU, COG3 / Fold change vs veh, COG3 / RFU, DIAPH2 / Fold change vs veh, DIAPH2 / RFU, SKA2 / Fold change vs veh, SKA2 / RFU, AFF3 / Fold change vs veh, AFF3 / RFU, LMF1 / Fold change vs veh, LMF1 / RFU, IPO11 / Fold change vs veh, IPO11 / RFU, DFFB / Fold change vs veh, DFFB / RFU, FOXP1 / Fold change vs veh, FOXP1 / RFU, CARD8 / Fold change vs veh, CARD8 / RFU, STRN3 / Fold change vs veh, STRN3 / RFU, ADK / Fold change vs veh, ADK / RFU, RASSF2 / Fold change vs veh, RASSF2 / RFU, WIPF1 / Fold change vs veh, WIPF1 / RFU, LARP1B / Fold change vs veh, LARP1B / RFU, RASA1 / Fold change vs veh, RASA1 / RFU, RB1 / Fold change vs veh, RB1 / RFU, PPFIA1 / Fold change vs veh, PPFIA1 / RFU, MAT2A / Fold change vs veh, MAT2A / RFU, CCT5 / Fold change vs veh, CCT5 / RFU, WDR92 / Fold change vs veh, WDR92 / RFU, CUX1 / Fold change vs veh, CUX1 / RFU, TTC7A / Fold change vs veh, TTC7A / RFU, TMEM135 / Fold change vs veh, TMEM135 / RFU, DEPTOR / Fold change vs veh, DEPTOR / RFU, CPM / Fold change vs veh, CPM / RFU, DNAJB6 / Fold change vs veh, DNAJB6 / RFU, CACNA2D3 / Fold change vs veh, CACNA2D3 / RFU, DTX4 / Fold change vs veh, DTX4 / RFU, TFCP2 / Fold change vs veh, TFCP2 / RFU, GMCL1 /// GMCL1P1 / Fold change vs veh, GMCL1 /// GMCL1P1 / RFU, AEBP2 / Fold change vs veh, AEBP2 / RFU, SNHG1 /// SNORD22 /// SNORD25 /// SNORD26 /// SNORD27 /// SNORD28 /// SNORD29 /// SNORD31 / Fold change vs veh, SNHG1 /// SNORD22 /// SNORD25 /// SNORD26 /// SNORD27 /// SNORD28 /// SNORD29 /// SNORD31 / Fold change (Aza/veh), C12orf56 (ProbeSet 11735607_a_at) / Fold change (ACY-1035/veh), C12orf56 (ProbeSet 11735607_a_at) / Fold change (Aza/veh), FGFR1OP (ProbeSet 11751329_s_at) / Fold change (ACY-1035/veh), FGFR1OP (ProbeSet 11751329_s_at) / Fold change (Aza/veh), VPS36 (ProbeSet 11739960_a_at) / Fold change (ACY-1035/veh), VPS36 (ProbeSet 11739960_a_at) / RFU SYPL1 (11715823_x_at) / Fold change /veh SYPL1 (11715823_x_at) / RFU IGFBP7 (11715501_s_at) / Fold change /veh IGFBP7 (11715501_s_at) / RFU REEP3 (11722064_at) / Fold change /veh REEP3 (11722064_at) / RFU IGLL1 (11728026_x_at) / Fold change /veh IGLL1 (11728026_x_at): dose or concentration left out as unconfirmed
Settings: MV-4-11 cells, 48 hours

`Nc1ncn([C@@H]2O[C@H](CO)[C@@H](O)[C@H]2O)c(=O)n1` [azacitidine] was tested, and the “Fold change /veh ABCC12 (11746883_a_at)” value was 0.93.
